“And” between values parts separate entries of the source, which are not always exact repeats. Identical values can stand only once. Like-named read-outs stand apart in the source and are kept apart here.
Tests used:
[1] = tested on: rats bearing Yoshida AH-130 ascites hepatoma; details: rat, in vivo
isolated EDL muscles [2] = assay: Proteolytic rate (tyrosine release) in incubated isolated EDL muscles; format: cell-based, rats; details: for Proteolytic rate: EDL muscles from control rats, 10^-4 M added to incubation medium, cycloheximide 0.5 mM
Protocol: (§1) The dissection and isolation of the EDL muscles was carried out under ketamine/xylazine mixture anesthesia. […] Such muscles are able to maintain normal ATP and phosphocreatine concentrations during a 3 hours incubation period. The muscles were incubated in a shaking-thermostatized water bath at 35 °C for 3 hours in 2 ml of Krebs-Henseleit physiological saline pH 7.4, containing 5 mM glucose and 20 mM HEPES. After the addition of the muscles to the vials, the incubation started at a shaking rate of 45 cycles/min.
(§2) Total protein degradation by the isolated muscles was calculated as the rate of tyrosine released in the last two hours of incubation into the medium in the presence of 0.5 mM cycloheximide in order to block the reincorporation of tyrosine into tissue protein. Tyrosine was measured fluorimetrically. Statistical analysis of the data was performed by means of the Student's t test.

[3] = tested on: rats bearing Yoshida AH-130 ascites hepatoma; details: rat, in vivo; remark: listed apart in the source
isolated EDL muscles [4] = tested on: isolated EDL muscles
Protocol: as §1, §2
Rates were measured in presence of cycloheximide (0.5 mM) and are expressed as nmols/g and 2 hours. […]

isolated EDL muscles [5] = assay: Protein synthesis rate in incubated isolated EDL muscles; format: cell-based, rats; details: for Rate of protein synthesis: EDL muscles from control rats, 10^-4 M added to incubation medium; for increase of the rate of protein synthesis: incubated rat EDL muscles, 10^-4 M in medium
Protocol: as §1
Synthetic rates are expressed as nmols of [^14C]phenylalanine incorporated per g and 30 min. […]

[6] = tested on: rats bearing Yoshida AH-130 ascites hepatoma; details: rat, in vivo; remark: listed apart in the source
[7] = tested on: tibialis muscles previously injected with bupivacain; assay: Muscular damage by bupivacain: tibialis muscle weight; format: in vivo; details: rats injected with bupivacain (0.5%) only (C+B)
Description: Muscular regeneration is a process that implies satellite cells activation, muscle precursors cells that lie adjacent to the skeletal muscle fibers. The muscle was damaged by injecting bupivacain intramuscularly (0.5%). This compound, after muscle damage, stimulates muscular regeneration.
Muscle weights are expressed as mg/100 g of initial body weight. Results are mean ± SEM for the number of animals indicated in parentheses.

Pax-7 and myogenin = assay: Real time PCR of satellite cell activation markers in tibialis muscle after bupivacain damage; format: in vivo, rats; details: bupivacain (0.5%) only (C + B)
Description: PAx-7 and myogenin. Results are mean ± SEM for the number of animals indicated in parentheses.

Structure (SMILES): COc1ccc(C[C@H](C)NC[C@@H](O)c2ccc(O)c(NC=O)c2)cc1 (racemic) [formoterol]
- Tumor cell number [1]: not significantly affected
- adipose tissues weight: brown (interscapular) [1]: 278 ± 21 mg/100 g of initial body weight and 177 ± 11 † *** mg/100 g of initial body weight
- adipose tissues weight: white (dorsal) [1]: 759 ± 126 mg/100 g of initial body weight and 461 ± 49 mg/100 g of initial body weight
- brown adipose tissue weight [1]: increase
- carcass weight [1]: 113 ± 11 g/100 g of initial body weight and 81 ± 1 g/100 g of initial body weight
- increase in EDL weight [1]: 32% and 16%
- increase in cardiac muscle weight [1]: 21%
- increase in heart weight [1]: 11%
- muscle weight: EDL [1]: 70 ± 3 mg/100 g of initial body weight and 50 ± 1 ††† *** mg/100 g of initial body weight
- muscle weight: gastrocnemius [1]: 859 ± 38 mg/100 g of initial body weight and 639 ± 16 mg/100 g of initial body weight
- muscle weight: heart [1]: 520 ± 15 mg/100 g of initial body weight and 426 ± 17 † ** mg/100 g of initial body weight
- muscle weight: soleus [1]: 55 ± 4 mg/100 g of initial body weight and 40 ± 1 mg/100 g of initial body weight
- muscle weight: tibialis [1]: 275 ± 12 mg/100 g of initial body weight and 204 ± 4 †† *** mg/100 g of initial body weight
- trophic action on soleus [1]: not significantly affected
- tumor cell content [1]: 3403 ± 88 (5) millions of cells
- white adipose tissue mass [1]: tendency towards a decrease
- Proteolytic rate (isolated EDL muscles [2]): 180 ± 5.6 (8) nmols/g and 2 hours
- decrease of the rate of protein degradation (release of tyrosine) (isolated EDL muscles [2]; isolated EDL muscles, 10^-4 M in medium): 20%
- efficacy against cachexia [3]: effective against cachexia
- muscle weights: soleus [3]: 37 ± 1 mg/100 g of initial body weight and 33 ± 2 mg/100 g of initial body weight and 37 ± 2 mg/100 g of initial body weight
- Proteolytic rate (isolated EDL muscles [4]; EDL muscles from rats given formoterol 2 mg/kg bw for six consecutive days, cycloheximide 0.5 mM): 159 ± 5 (8) nmols/g and 2 hours
- decrease of proteolytic rate (isolated EDL muscles [4]; EDL muscles from rats pre-treated for six consecutive days): 12%
- Rate of protein synthesis (isolated EDL muscles [5]): 9.36 ± 0.3 (7) nmols of [14C]phenylalanine in
- increase of the rate of protein synthesis (isolated EDL muscles [5]): 20%
- carcass weigth [6]: 106 ± 1 g/100 g of initial body weight and 97 ± 1 g/100 g of initial body weight
- effect on cancer cachexia [6]: effective at low doses
- muscle weigths: EDL [6]: 52 ± 1 t mg/100 g of initial body weight and 51 ± 2 t mg/100 g of initial body weight
- muscle weigths: gastrocnemius [6]: 629 ± 9 mg/100 g of initial body weight and 598 ± 16 mg/100 g of initial body weight
- muscle weigths: heart [6]: 431 ± 5 mg/100 g of initial body weight and 417 ± 18 mg/100 g of initial body weight
- muscle weigths: soleus [6]: 43 ± 2 mg/100 g of initial body weight and 43 ± 1 mg/100 g of initial body weight
- muscle weigths: tibialis [6]: 210 ± 5 t mg/100 g of initial body weight and 199 ± 4 t mg/100 g of initial body weight

Structure (SMILES): CCCCN1CCCCC1C(=O)Nc1c(C)cccc1C (stereo not shown) [B, bupivacain]
- weight of tibialis muscles [7]: 265 ± 4 mg/100 g of initial body weight
- Myogenin gene expression (Pax-7 and myogenin): 142 ± 77
- Pax-7 gene expression (Pax-7 and myogenin): 105 ± 11

Structure (SMILES): CC(C)(C)NCC(O)c1cc(Cl)c(N)c(Cl)c1 (stereo not shown) [clenbuterol]
- Proteolytic rate (isolated EDL muscles [2]): 176 ± 4.4 (8) nmols/g and 2 hours
- Rate of protein synthesis (isolated EDL muscles [5]): 9.36 ± 0.5 (9) nmols of [14C]phenylalanine in
- increase of the rate of protein synthesis (isolated EDL muscles [5]): 20%

Source: patent publication EP1818052A1 (Acacia Pharma Limited, priority 2004, dated 2006)
